# Measurements as given in patent publication US5688913A, “CS-1 peptidomimetics, compositions and methods of using the same” (Cytel Corporation, priority 1995, dated 1997).
# Numbered stars: 1 amine (or outer) side, 2 acyl side, 3 side chain; on linkers, the order of the positions; unused ones are H or OH. Square brackets hold non-standard residues; d marks the D form. Peptide text beside a SMILES is read from it. * marks the point of attachment. X20 = O=C(CCCCCO[C@@H]1O[C@H](CO)[C@@H](O)[C@H](O)[C@H]1N[*:1])[*:2]; Biotin = O=C1N[C@H]2[C@H](CS[C@H]2CCCCC(=O)*)N1; Quinaldoyl = O=C(c1ccc2ccccc2n1)*; Cha = N[C@@H](CC1CCCCC1)C(=O)O; X19 = O=C(Cc1ccc(Br)cc1)*; Morpholide = C1CN(*)CCO1; Piperidide = C1CCN(*)CC1; PhAc = O=C(Cc1ccccc1)*; NHBn = c1ccc(CN*)cc1; Bz = O=C(c1ccccc1)*; Ahx = NCCCCCC(=O)O; NHNH2 = NN*
# Molecular target: VLA-4 (Homo sapiens, UniProt P05556+P13612)
# Sequence (P13612 34-1032): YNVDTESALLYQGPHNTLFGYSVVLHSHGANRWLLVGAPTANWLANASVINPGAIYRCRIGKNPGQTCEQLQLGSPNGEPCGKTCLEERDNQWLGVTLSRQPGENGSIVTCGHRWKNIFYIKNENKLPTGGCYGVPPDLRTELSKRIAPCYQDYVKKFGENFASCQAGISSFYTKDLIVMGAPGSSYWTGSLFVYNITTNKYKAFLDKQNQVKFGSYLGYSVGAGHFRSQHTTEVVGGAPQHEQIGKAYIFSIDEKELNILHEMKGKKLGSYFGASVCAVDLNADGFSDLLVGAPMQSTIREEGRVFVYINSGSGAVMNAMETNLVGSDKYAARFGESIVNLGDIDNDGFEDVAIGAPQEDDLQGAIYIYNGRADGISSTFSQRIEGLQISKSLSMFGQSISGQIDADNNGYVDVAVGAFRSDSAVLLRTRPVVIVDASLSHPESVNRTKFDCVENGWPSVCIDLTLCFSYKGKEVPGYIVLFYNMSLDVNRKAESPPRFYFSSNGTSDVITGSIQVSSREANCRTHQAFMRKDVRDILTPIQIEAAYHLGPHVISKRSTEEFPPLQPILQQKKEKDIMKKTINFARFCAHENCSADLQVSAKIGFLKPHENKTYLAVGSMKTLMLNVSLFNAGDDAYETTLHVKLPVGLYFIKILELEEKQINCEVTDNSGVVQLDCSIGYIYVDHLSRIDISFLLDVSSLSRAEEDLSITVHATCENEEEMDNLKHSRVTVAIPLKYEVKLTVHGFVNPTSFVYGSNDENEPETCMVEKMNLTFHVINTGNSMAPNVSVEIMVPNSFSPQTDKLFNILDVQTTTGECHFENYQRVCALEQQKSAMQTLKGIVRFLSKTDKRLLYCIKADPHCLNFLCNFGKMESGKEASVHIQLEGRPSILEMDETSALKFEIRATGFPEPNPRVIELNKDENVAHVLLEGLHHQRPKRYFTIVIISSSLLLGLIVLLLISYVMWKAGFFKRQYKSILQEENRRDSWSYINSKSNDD
# Sequence (P05556 21-798): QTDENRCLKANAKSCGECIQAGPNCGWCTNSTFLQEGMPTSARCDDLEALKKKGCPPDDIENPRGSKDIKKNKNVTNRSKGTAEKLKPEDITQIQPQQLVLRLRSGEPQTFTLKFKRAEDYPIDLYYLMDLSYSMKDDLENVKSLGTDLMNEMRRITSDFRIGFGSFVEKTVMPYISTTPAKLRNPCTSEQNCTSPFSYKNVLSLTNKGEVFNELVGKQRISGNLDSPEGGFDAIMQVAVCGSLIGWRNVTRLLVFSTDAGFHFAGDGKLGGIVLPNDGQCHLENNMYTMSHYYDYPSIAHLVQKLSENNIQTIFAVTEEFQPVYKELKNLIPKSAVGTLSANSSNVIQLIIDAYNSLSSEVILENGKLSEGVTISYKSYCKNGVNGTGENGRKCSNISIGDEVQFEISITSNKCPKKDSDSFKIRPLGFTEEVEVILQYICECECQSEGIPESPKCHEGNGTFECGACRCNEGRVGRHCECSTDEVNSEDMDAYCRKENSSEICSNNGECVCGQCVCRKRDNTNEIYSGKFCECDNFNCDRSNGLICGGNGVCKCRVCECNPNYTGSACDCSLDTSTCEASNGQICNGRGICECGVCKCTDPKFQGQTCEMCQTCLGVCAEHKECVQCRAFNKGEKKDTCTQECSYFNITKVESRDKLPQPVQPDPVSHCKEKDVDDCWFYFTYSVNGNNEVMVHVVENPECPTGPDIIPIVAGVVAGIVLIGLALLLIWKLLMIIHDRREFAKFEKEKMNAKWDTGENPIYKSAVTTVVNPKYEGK
# Test: cell-based
# Type: cell-based
# Parameters: host or cells: Jurkat (human T lymphoblastic line)
# Details: not given
# Description: Binding inhibition is measured here as a concentration of peptide that inhibits one-half the binding between a standard number of Jurkat cells and a standard amount of CS-1 peptide bound to the surface of a microtiter plate well. Those concentrations are conveniently expressed as IC50 values, smaller numbers indicating a lower concentration required to inhibit 50 percent binding and therefore greater potency. Further specifics of this assay are provided hereinafter.
# Jurkat cells (ATCC TIB 152), a human T lymphoblastic line, labeled with ^51 chromium were used to assay in vitro binding inhibition provided by various peptides discussed herein.
# The plates were prepared as follows: The 25-mer CS-1 peptide (SEQ ID NO:1) dissolved at 0.5-1 μg/ml in a buffer of 0.1M NaHCO3 at pH 9.5 that also contained 10 μg/ml of bovine serum albumin (BSA) or a conjugate of the CS-1 peptide linked to ovalbumin (CS-1-OVA) dissolved at 1-2.5 μg/ml in the same buffer was used as the substrate. Each well of the microtiter plates was coated with 50 μl of substrate or buffer alone for controls. The wells were permitted to dry out completely and were then rinsed twice with PBS at pH 7.4. Non-specific binding sites of each well were then blocked using 200 μl per well of RPMI/1 percent BSA for two hours at room temperature. Both solid phase-affixed substrates provided similar results.
# Jurkat cells (3-5×10^6 cells) were placed into a 15 ml Falcon™ round-bottom tube with a cap. The tube was centrifuged, and the extra medium was then removed.
# Two hundred microliters of a ^51 Cr labeling solution were added to the centrifuged cells and maintained in contact with the cells for 90-120 minutes in a warm room. This procedure typically provides about 50,000-100,000 cpm/well with about 80-100 percent cell viability. Longer contact times provide a greater amount of labeling but lower cell viability.
# The labeled cells are washed with (i) complete medium, (ii) 1 mM EDTA/PBS and then (iii) RPM1/1 percent BSA free of serum components. The cells are centrifuged after each washing. The cells are finally resuspended in serum-free RPMI/1 percent BSA at a concentration of 1×10^6 viable cells/ml, which provides a concentration that is diluted by one-half in the assay.
# Inhibitor peptides are prepared as stock solutions at 20 mg/ml in DMSO in 1.5 ml cryogenic screwcap vials, and were stored at -70° C. Using Flow™ round-bottom or V-bottom microtiter plates, the inhibitor peptides were prepared at twice the assay concentration in RPMI/1 percent BSA at 60 μl well.
# Four initial dilutions were typically used.
# The ^51 Cr-labeled cells (1×10^6 cells at 60 μl/well) were then admixed with the diluted peptide solutions. The admixtures were maintained at room temperature (about 22° C.) for 30 minutes.
# One hundred microliters of each inhibitor peptide/cell admixture were transferred to the substrate-coated wells. This was done in triplicate for each dilution. The resulting plates were incubated for 30 minutes at 37° C. and then washed gently three times with RPMI/1 percent BSA at 200 μl/well. Binding was observed microscopically, particularly after the second wash.
# The bound cells were then lysed by the addition of a 0.5 percent solution of sodium dodecylsulfate in water at 100 μ/l well. The resulting solutions were then processed for counting and calculation of IC50 values following usual procedures. Appropriate positive and negative controls were used with each plate so that the results of separate assays could be normalized and compared.
# The data of Table 1 are so normalized.
row,Structure (SMILES),RELATIVE POTENCY (relative peptide inhibition of VLA-4 binding CS-1)
1,CC(=O)N[C@H]1[C@H](OCCCCCC(=O)N[C@@H](Cc2ccccc2)C(=O)N[C@@H](CC(C)C)C(=O)N[C@@H](CC(=O)O)C(=O)N[C@@H](CC(C)C)C(=O)N2CCCCC2)O[C@H](CO)[C@@H](O)[C@@H]1O (Ac-[X20]FLDL-Piperidide),41
2,CC(C)C[C@H](NC(=O)c1ccncc1)C(=O)N[C@@H](CC(=O)O)C(=O)N[C@@H](Cc1ccc(O)cc1)C(=O)N1CCCCC1,24
3,CC(C)C[C@H](NC(=O)c1ccc2ccccc2n1)C(=O)N[C@@H](CC(=O)O)C(=O)N[C@@H](Cc1ccccc1)C(=O)N1CCC[C@@H]1C(N)=O [X L D F p 2-quinolinecarbonyl amide] (Quinaldoyl-LDF[dP]-NH2),4
4,CC(C)C[C@H](NC(=O)C=Cc1ccccc1)C(=O)N[C@@H](CC(=O)O)C(=O)N[C@H](C(=O)N1CCC[C@@H]1C(N)=O)C(C)C [X L D V p cinnamoyl amide],1
5,"CC(C)C[C@H](NC(=O)[C@H](Cc1ccccc1)NC(=O)CCCCCNC(=O)CCCC[C@@H]1SC[C@@H]2NC(=O)N[C@@H]21)C(=O)N[C@@H](CC(=O)O)C(=O)N[C@@H](Cc1ccccc1)C(=O)N1CCC[C@@H]1C(N)=O [B Z F L D F p, N-(biotinoyl-ε-aminocaproyl)-Phe-Leu-Asp-Phe-D-Pro-NH2] ({Biotin-Ahx}-FLDF[dP]-NH2)",150
6,CC(C)C[C@H](NC(=O)C1CCCCC1)C(=O)N[C@@H](CC(=O)O)C(=O)N[C@H](C(=O)N1CCC[C@@H]1C(N)=O)C(C)C [X L D V p cyclohexanecarbonyl amide],5
7,CC(C)C[C@H](NC(=O)CCC1CCCCC1)C(=O)N[C@@H](CC(=O)O)C(=O)N[C@H](C(=O)N1CCC[C@@H]1C(N)=O)C(C)C [X L D V p cyclohexanepropionyl amide],1
8,CC(C)COC(=O)N[C@@H](CC(=O)O)C(=O)N[C@@H](Cc1ccccc1)C(=O)N1CCCCC1,0
9,CC(C)CCC(=O)N[C@@H](CC(C)C)C(=O)N[C@@H](CC(=O)O)C(=O)N[C@H](C(=O)N1CCC[C@@H]1C(N)=O)C(C)C [X L D V p 4-methylvaleroyl amide],3
10,CC(C)C[C@H](NCc1ccccc1)C(=O)N[C@@H](CC(=O)O)C(=O)N[C@@H](Cc1ccccc1)C(=O)N1CCCCC1 [X L D F Z benzyl piperidinamide],6
11,CC(C)C[C@H](NC(=O)Cc1ccc(Br)cc1)C(=O)N[C@@H](CC(=O)O)C(=O)N[C@@H](Cc1ccccc1)C(=O)N1CCC[C@@H]1C(N)=O [X L D F p p-bromophenylacetyl amide] (X19-LDF[dP]-NH2),3
12,CC(C)C[C@H](N)C(=O)N[C@@H](CC(=O)O)C(=O)N[C@@H](Cc1ccccc1)C(=O)N1CCCCC1 [L D F Z free amine piperidinamide] (H-Leu-Asp-Phe-Piperidide),0
13,"Cc1cccc(C)c1C(=O)N[C@@H](CC(C)C)C(=O)N[C@@H](CC(=O)O)C(=O)N[C@H](C(=O)N1CCC[C@@H]1C(N)=O)C(C)C [X L D V p 2,6-dimethylbenzoyl amide]",5

# Same assay, conditions: normalized IC50 relative to standard peptide of SEQ ID NO:3 (=1); about one-tenth or less of the standard is assigned zero
row,Structure (SMILES),RELATIVE POTENCY (relative peptide inhibition of VLA-4 binding CS-1)
1,CC(C)C[C@H](NC(=O)Cc1ccccc1)C(=O)N[C@@H](CC(=O)O)C(=O)N[C@@H](Cc1ccccc1)C(N)=O [X L D F phenylacetyl amide] (PhAc-Leu-Asp-Phe-NH2),1
2,CC(C)C[C@H](NC(=O)Cc1ccccc1)C(=O)N[C@@H](CC(=O)O)C(=O)NCCN1CCOCC1,13
3,CC(C)C[C@H](NC(=O)Cc1ccccc1)C(=O)N[C@@H](CC(=O)O)C(=O)N[C@@H](Cc1ccccc1)C(=O)N1CCC(O)CC1,603
4,CC(C)C[C@H](NC(=O)Cc1ccccc1)C(=O)N[C@@H](CC(=O)O)C(=O)NNC(=O)OC(C)(C)C [X L D Z phenylacetyl N'-t-Boc-hydrazide],2
5,CC(C)C[C@H](NC(=O)Cc1ccccc1)C(=O)N[C@@H](CC(=O)O)C(=O)NC1Cc2ccccc2N(CCN2CCOCC2)C1=O (stereo partly drawn),20
6,CC(C)C[C@H](NC(=O)Cc1ccccc1)C(=O)N[C@@H](CC(=O)O)C(=O)NN [X L D Z phenylacetyl hydrazide] (PhAc-Leu-Asp-NHNH2),1
7,CC(C)C[C@H](NC(=O)Cc1ccccc1)C(=O)N[C@@H](CC(=O)O)C(=O)N[C@@H](Cc1ccccc1)C(=O)N1CC(O)C(O)C1 (stereo partly drawn),194
8,"CC(C)C[C@H](NC(=O)Cc1ccccc1)C(=O)N[C@@H](CC(=O)O)C(=O)N[C@@H](Cc1ccc(O)cc1)C(=O)N1CCC[C@@H]1C(N)=O [X L D Y p phenylacetyl amide, N-phenylacetyl-Leu-Asp-Tyr-D-Pro-NH2] (PhAc-LDY[dP]-NH2)",640
9,"CC(C)C[C@H](NC(=O)Cc1ccccc1)C(=O)N[C@@H](CC(=O)O)C(=O)N[C@@H](Cc1ccc(O)cc1)C(=O)N1CCOCC1 [X L D Y Z phenylacetyl morpholinamide, N-phenylacetyl-Leu-Asp-Tyr-morpholinamide] (PhAc-Leu-Asp-Tyr-Morpholide)",313
10,"CC(C)C[C@H](NC(=O)Cc1ccccc1)C(=O)N[C@@H](CC(=O)O)C(=O)N[C@H](C(=O)N1CCC[C@@H]1C(N)=O)C(C)C [X L D V p phenylacetyl amide, N-phenylacetyl-Leu-Asp-Val-D-Pro-NH2]",106
11,CC(C)C[C@H](NC(=O)Cc1ccccc1)C(=O)N[C@@H](CC(=O)O)C(=O)N[C@@H](CC(C)C)C(=O)N1CCOCC1 [X L D L Z phenylacetyl morpholinamide] (PhAc-Leu-Asp-Leu-Morpholide),291
12,CC(C)C[C@H](NC(=O)Cc1ccccc1)C(=O)N[C@@H](CC(=O)O)C(=O)NN(Cc1ccccc1)Cc1ccccc1,0
13,CC(C)C[C@H](NC(=O)Cc1ccccc1)C(=O)N[C@@H](CC(=O)O)C(=O)N[C@H]1Cc2ccccc2[C@H]2CCCCN2C1=O,50
14,CC(C)C[C@H](NC(=O)Cc1ccccc1)C(=O)N[C@@H](CC(=O)O)C(=O)NCc1ccccc1 [X L D Z phenylacetyl benzylamide] (PhAc-Leu-Asp-NHBn),19
15,CC(C)C[C@H](NC(=O)Cc1ccccc1)C(=O)N[C@@H](CC(=O)O)C(=O)NC1Cc2ccccc2N(CC(N)=O)C1=O (stereo partly drawn),45
16,CC(C)C[C@H](NC(=O)Cc1ccccc1)C(=O)N[C@@H](CC(=O)O)C(=O)NC(Cc1ccccc1)Cc1ccccc1,0
17,CC(C)C[C@H](NC(=O)Cc1ccccc1)C(=O)N[C@@H](CC(=O)O)C(=O)N(Cc1ccccc1)Cc1ccccc1 [X L D Z phenylacetyl dibenzylamide],0
18,CC(C)C[C@H](NC(=O)Cc1ccccc1)C(=O)N[C@@H](CC(=O)O)C(=O)NC1CCN(C2CCCCC2)C1=O (stereo partly drawn),7
19,CC(C)[C@H](NC(=O)[C@H](CC(=O)O)NC(=O)[C@H](CC1CCCCC1)NC(=O)c1ccccc1)C(=O)N1CCC[C@@H]1C(N)=O (Bz-[Cha]DV[dP]-NH2),11

# Same assay, conditions: normalized IC50 relative to standard peptide of SEQ ID NO:3 (=1); about one-tenth or less of the standard is assigned zero; listed as X L D Y P phenylacetyl amide
row,Structure (SMILES),RELATIVE POTENCY (relative peptide inhibition of VLA-4 binding CS-1)
1,"CC(C)C[C@H](NC(=O)Cc1ccccc1)C(=O)N[C@@H](CC(=O)O)C(=O)N[C@@H](Cc1ccc(O)cc1)C(=O)N1CCC[C@@H]1C(N)=O [X L D Y p phenylacetyl amide, N-phenylacetyl-Leu-Asp-Tyr-D-Pro-NH2] (PhAc-LDY[dP]-NH2)",405
